≈ marks a conversion by molar mass, not a printed value. Read-outs that look alike come from different tables or passages of the source.
Key:
[1] = test system: Mtb H37Ra ITM-M006710 (ATCC 9431); test: Microplate Alamar Blue Assay (MABA) microdilution, Mtb H37Ra; assay type: cell-based, Mycobacterium tuberculosis; conditions: Mycobacterium tuberculosis
[2] = test system: Lichtheimia corymbifera CCM 8077; test: Antifungal microdilution broth method, LC; assay type: cell-based; conditions: CCM8077, 48 h, read-out: MIC LC
[3] = test system: Candida parapsilosis CCM 8260 (ATCC 22019); test: Antifungal microdilution broth method, CP; assay type: cell-based; conditions: Lodderomyces parapsilosis, 24 h, read-out: MIC CP
[4] = test system: Candida albicans CCM 8320 (ATCC 24433); test: Antifungal microdilution broth method, CA; assay type: cell-based; conditions: 24 h, read-out: MIC CA
[5] = test system: Staphylococcus epidermidis CCM 4418 (ATCC 12228); test: Antibacterial microdilution broth method, SE; assay type: cell-based; conditions: 24 h, read-out: MIC SE
[6] = test system: Mycobacterium aurum DSM 43999 (ATCC 23366); test: Microplate Alamar Blue Assay (MABA) microdilution, M. aurum; assay type: cell-based; conditions: Mycolicibacterium aurum
[7] = test system: Trichophyton interdigitale CCM 8377 (ATCC 9533); test: Antifungal microdilution broth method, TI; assay type: cell-based; conditions: 48 h, read-out: MIC TI
[8] = test system: M. smegmatis DSM 43465 (ATCC 607); test: Microplate Alamar Blue Assay (MABA) microdilution, M. smegmatis; assay type: cell-based, Mycobacterium smegmatis; conditions: Mycolicibacterium smegmatis
HepG2 cell line = test: HepG2 cytotoxicity, CellTiter 96 (MTS) assay; assay type: cell-based, human; conditions: Homo sapiens, read-out: HepG2 IC50
[9] = test system: Candida krusei CCM 8271 (ATCC 6258); test: Antifungal microdilution broth method, CK; assay type: cell-based; conditions: Pichia kudriavzevii, 24 h, read-out: MIC CK
[10] = test system: Klebsiella pneumoniae CCM 4415 (ATCC 10031); test: Antibacterial microdilution broth method, KP; conditions: read after 24 h of incubation
[11] = test system: Aspergillus flavus CCM 8363; test: Antifungal microdilution broth method, AFla; assay type: cell-based; conditions: CCM8363, read after 48 h (filamentous fungi), read-out: MIC AFla
Protocol: 6. In vitro antifungal activity screening
Antifungal activity evaluation was performed using a microdilution broth method according to EUCAST instructions (The European Committee on Antimicrobial Susceptibility Testing) with slight modifications. Eight fungal strains (four yeast and four mould strains) were used for antifungal […]
and Trichophyton interdigitale CCM 8377 (ATCC 9533). Tested strains were purchased from the Czech Collection of Microorganisms (CCM, Brno, Czech Republic) or from the American Type Collection Cultures (ATCC, Manassas, VA, USA). Tested compounds were dissolved in DMSO and diluted in a twofold manner with RPMI 1640 medium, with glutamine and 2% glucose, buffered to pH 7.0 with MOPS (3-morpholinopropane-1-sulfonic acid). The final concentration of DMSO in the testing […]
Static incubation was performed in the dark and in humid atmosphere, at 35±2 °C, for 24 and 48 h (72 and 120 h for Trichophyton interdigitale respectively). Positive controls consisted of test microbe solely, while negative controls consisted of cultivation medium and DMSO. Visual inspection and metabolic activity indicator, Alamar Blue (ThermoFisher Scientific), were used for MIC endpoint evaluation. The internal quality standards, amphotericin B (Sigma-Aldrich) and voriconazole (Toronto research Chemicals, CA) were involved in assays (for MIC of standards see Table S5). All experiments were conducted in duplicates.
For the results to be valid, the difference in MIC for one compound determined from two parallel measurements must not be greater than one step on the dilution scale.

[12] = test system: Candida tropicalis CCM 8264 (ATCC 750); test: Antifungal microdilution broth method, CT; assay type: cell-based; conditions: 24 h, read-out: MIC CT
[13] = test system: Aspergillus fumigatus ATCC 204305; test: Antifungal microdilution broth method, AF; assay type: cell-based; conditions: ATCC204305, 48 h, read-out: MIC AF
[14] = pH 6.6, read-out: MIC Mtb H37Ra
[15] = pH 6, calculated from µg/mL, read-out: MIC Mtb H37Ra
[16] = pH 6, read-out: MIC M. aurum µg/mL
[17] = pH 6, read-out: MIC M. smegmatis µg/mL
[18] = pH 6.6, read-out: MIC M. smegmatis

SMILES | MIC ([1]; pH 6) [µg/mL] | MIC ([1]; pH 6, read-out: MIC Mtb H37Ra) [µg/mL] | MIC [1, 14] [µg/mL] | MIC [1, 15] [µM] | MIC [2] [µM] | MIC [3] [µM] | MIC [4] [µM] | MIC [5] [µM] | MIC [6, 16] [µg/mL] | MIC ([6]; pH 6.6, read-out: MIC M. aurum) [µg/mL] | MIC [7] [µM] | MIC [8, 17] [µg/mL] | MIC [8, 18] [µg/mL] | MIC [9] [µM] | MIC KP [10] [µM] | MIC [11] [µM] | MIC [12] [µM] | MIC [13] [µM] | other results
COC(=O)C(NC(=O)c1cnccn1)c1ccccc1 [PC-D/L-Pgl-Me, methyl 2-phenyL-2-(pyrazine-2-carboxamido)acetate] | < 1.95 | < 1.95 | ≥ 500 | < 7.3 | > 500 | > 500 | > 500 | > 500 | 31.2 (≈ 115 µM) | ≥ 500 | > 500 | ≥ 250 | ≥ 500 | > 500 | > 500 | > 500 | 500 (≈ 136 µg/mL) | > 500 | MIC ([1]; pH 6, read-out: Mtb pH 6 MIC): < 7 µM; IC50 (HepG2 cell line; HepG2, 24 h): > 1000 µM
CCOC(=O)CNC(=O)c1cnccn1 [PC-Gly-Et, ethyl (pyrazine-2-carbonyl)glycinate] | ≥ 125 | ≥ 125 | ≥ 500 | ≥ 598 | > 500 | > 500 | > 500 | > 500 | ≥ 125 | ≥ 500 | > 500 | ≥ 125 | 250 (≈ 1200 µM) | > 500 | > 500 | > 500 | > 500 | > 500 | –
C[C@H](NC(=O)c1cnccn1)C(=O)O [PC-L-Ala, (pyrazine-2-carbonyl)-L-alanine] | ≥ 250 | ≥ 250 | ≥ 250 | ≥ 1280 | > 500 | > 500 | > 500 | > 500 | 62.5 (≈ 320 µM) | ≥ 250 | > 500 | 125 (≈ 640 µM) | ≥ 250 | > 500 | > 500 | > 500 | > 500 | > 500 | MIC ([1]; pH 6, Table 4, read-out: Mtb pH 6 MIC): ≥ 1280 µM; IC50 (HepG2 cell line; HepG2, 24 h incubation, CellTiter 96): > 250 µM
CCOC(=O)C[C@H](NC(=O)c1cnccn1)C(=O)OCC [PC-L-Asp-diEt, diethyl (pyrazine-2-carbonyl)-L-aspartate] | ≥ 125 | ≥ 125 | ≥ 500 | ≥ 423 | > 500 | > 500 | > 500 | 500 (≈ 148 µg/mL) | ≥ 125 | ≥ 500 | > 500 | ≥ 125 | ≥ 500 | > 500 | > 500 | > 500 | > 500 | > 500 | –
CCOC(=O)CC[C@H](NC(=O)c1cnccn1)C(=O)OCC [PC-L-Glu-diEt, diethyl (pyrazine-2-carbonyl)-L-glutamate] | 31.2 | 31.2 | ≥ 500 | 101 | > 500 | > 500 | > 500 | > 500 | ≥ 500 | ≥ 500 | > 500 | ≥ 500 | ≥ 500 | > 500 | > 500 | > 500 | > 500 | > 500 | –
COC(=O)[C@H](CCSC)NC(=O)c1cnccn1 [PC-L-Met-Me, methyl (pyrazine-2-carbonyl)-L-methioninate] | < 3.91 | < 3.91 | ≥ 500 | < 14.5 | > 500 | > 500 | > 500 | > 500 | 62.5 (≈ 232 µM) | ≥ 500 | 500 (≈ 135 µg/mL) | ≥ 500 | ≥ 500 | > 500 | > 500 | > 500 | > 500 | > 500 | MIC ([1]; pH 6, read-out: Mtb pH 6 MIC): 15 µM; IC50 (HepG2 cell line; HepG2, 24 h): > 100 µM
O=C(N[C@@H](COCc1ccccc1)C(=O)O)c1cnccn1 [PC-L-OBn-Ser, O-benzyl-N-(pyrazine-2-carbonyl)-L-serine] | ≥ 500 | ≥ 500 | ≥ 500 | ≥ 1660 | > 500 | > 500 | > 500 | > 500 | 62.5 (≈ 207 µM) | ≥ 500 | > 500 | 250 (≈ 830 µM) | ≥ 500 | > 500 | > 500 | > 500 | > 500 | > 500 | –
COC(=O)[C@H](COCc1ccccc1)NC(=O)c1cnccn1 [PC-L-OBn-Ser-Me, methyl O-benzyl-N-(pyrazine-2-carbonyl)-L-serinate] | 7.81 | 7.81 | 250 | 24.8 | > 250 | > 250 | > 250 | > 250 | 62.5 (≈ 198 µM) | ≥ 500 | > 250 | ≥ 500 | ≥ 500 | > 250 | – | > 250 | 125 (≈ 39.4 µg/mL) | > 250 | MIC ([1]; pH 6, read-out: Mtb pH 6 MIC): 25 µM; IC50 (HepG2 cell line; HepG2, 24 h): 742 µM
COC(=O)[C@H](COC(C)(C)C)NC(=O)c1cnccn1 [PC-L-OtBu-Ser-Me, methyl O-(tert-butyl)-N-(pyrazine-2-carbonyl)-L-serinate] | ≥ 500 | ≥ 500 | ≥ 500 | ≥ 1780 | > 500 | > 500 | > 500 | > 500 | 62.5 (≈ 222 µM) | ≥ 500 | > 500 | 250 (≈ 889 µM) | ≥ 500 | > 500 | > 500 | > 500 | > 500 | > 500 | –
COC(=O)[C@H](CO)NC(=O)c1cnccn1 [PC-L-Ser-Me, methyl (pyrazine-2-carbonyl)-L-serinate] | ≥ 500 | ≥ 500 | ≥ 500 | ≥ 2220 | > 500 | > 500 | > 500 | > 500 | ≥ 500 | ≥ 500 | > 500 | ≥ 500 | ≥ 500 | > 500 | > 500 | > 500 | > 500 | > 500 | –
COC(=O)[C@@H](NC(=O)c1cnccn1)[C@@H](C)O [PC-L-Thr-Me, methyl (pyrazine-2-carbonyl)-L-threoninate] | ≥ 500 | ≥ 500 | ≥ 500 | ≥ 2090 | > 500 | > 500 | > 500 | > 500 | ≥ 500 | ≥ 500 | 500 (≈ 120 µg/mL) | ≥ 500 | ≥ 500 | > 500 | > 500 | > 500 | > 500 | > 500 | –
COC(=O)[C@@H](NC(=O)c1cnccn1)C(C)C [PC-L-Val-Me, methyl (pyrazine-2-carbonyl)-L-valinate] | ≥ 125 | ≥ 125 | ≥ 500 | ≥ 527 | > 500 | > 500 | > 500 | > 500 | ≥ 125 | ≥ 500 | > 500 | ≥ 125 | 250 (≈ 1050 µM) | > 500 | > 500 | > 500 | > 500 | > 500 | –
